pKd: −log10 of the molar value. In brackets after ≈: the same amount, converted by molar mass. Read-outs that look alike come from different tables or passages of the source.
Legend:
[1] = test system: H. pylori ATCC 43504 (metronidazole-resistant); test: MIC/MBC by broth microdilution, strain ATCC 43504 (MTZ-R); format: cell-based; settings: Helicobacter pylori; for MBC: ATCC43504; for MIC: ATCC43504, 72 h
H. pylori ATCC 700392 = test: MIC/MBC by broth microdilution, strain ATCC 700392; format: cell-based; settings: Helicobacter pylori, ATCC700392; for MBC: ATCC 700392; for MIC: ATCC 700392, 72 h
[2] = test system: H. pylori ATCC 700684 (clarithromycin resistant); test: MIC/MBC by broth microdilution, strain ATCC 700684 (CLR-R); format: cell-based; settings: Helicobacter pylori; for MBC: ATCC700684; for MIC: ATCC700684, 72 h
[3] = test system: H. pylori ATCC 700684 (CLR-R); test: Checkerboard assay with clarithromycin, strain ATCC 700684; format: cell-based, Helicobacter pylori
Protocol: (§1) Antibacterial synergies of selected DHPs in combination with first-line anti-H. pylori antibiotics were tested by the checkerboard assay. Using 96-well flat-bottom microtiter plates, we assayed the antibacterial effect of the interaction of a range of 2-fold dilutions of clarithromycin or metronidazole with a range of 2-fold dilutions of each selected DHP. Serial dilutions of both antimicrobials (antibiotic and DHP) were firstly prepared using two different sterile microtiter plates, one compound was diluted along the rows in a first plate, and the other compound was diluted along the columns of a second plate. Then, both gradients were mixed in a third microtiter plate and inoculated with a freshly prepared bacterial suspension of H. pylori at 2 × 10^6 CFU/mL in BHI+FBS. Plates were incubated for 48 h at 37 °C under microaerobic conditions. […] The interaction between drugs was determined by calculating the fractional inhibitory concentration index (FICI) as: FICA (MICA in the presence of B/MICA alone) + FICB (MICB in the presence of A/MICB alone).

[4] = target: T1, H. pylori HsrA response regulator (Helicobacter pylori, UniProt O25684); test: biochemical; format: binding; settings: for n (binding stoichiometry): absolute error 0.06; for ΔG: absolute error 0.2 kcal/mol; for ΔH: absolute error 0.4 kcal/mol
T1 sequence (O25684 entry or part of it): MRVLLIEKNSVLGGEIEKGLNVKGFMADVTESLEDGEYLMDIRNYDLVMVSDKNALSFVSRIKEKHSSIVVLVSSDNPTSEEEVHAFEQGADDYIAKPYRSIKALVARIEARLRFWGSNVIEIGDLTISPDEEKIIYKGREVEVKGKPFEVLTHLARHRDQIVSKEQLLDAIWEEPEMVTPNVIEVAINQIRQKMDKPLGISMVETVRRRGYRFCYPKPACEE
Protocol: Thermodynamic parameters of the molecular interaction between HsrA and its DHP-class inhibitors were analyzed by isothermal titration calorimetry (ITC) using an AutoiTC200 calorimeter (MicroCal, Malvern Instruments, Malvern, Worcestershire, UK). A solution of 20 µM of the protein in 50 mM Tris-HCl [pH 8], 150 mM NaCl, 10% glycerol, 1% DMSO was titrated with 200 µM of the corresponding ligand (DHP) dissolved in the same buffer at 25 °C. A total of 19 injections of 2 μL was added sequentially to the sample cell after 150 s spacing to ensure that the thermal power returned to the baseline before the next injection. Dissociation constants and binding enthalpies were calculated by non-linear least squares regression data analysis using the software package Origin 7.0 (OriginLab, Northampton, MA, USA).

[5] = target: T1, H. pylori HsrA response regulator; format: biochemical; settings: EMSA; for Inhibition of the DNA binding activity of HsrA: 6 µM HsrA, 120 ng target promoter, 0.1 to 2 mM DHP; for Inhibition of HsrA activity at 100 μM: 100 μM drug, 6 μM HsrA
Protocol: The in vitro biological activity of the H. pylori HsrA response regulator and its potential inhibition by DHP drugs were assessed by electrophoretic mobility shift assay (EMSA) as previously described. Briefly, 120 ng of target DNA (promoter region of the H. pylori porGDAB operon) was mixed with 6 µM of recombinant HsrA [17] in the presence of increasing concentrations (0.1 to 2 mM) of selected DHP drugs. Mixtures of DNA and protein in a 20 μL reaction volume containing 10 mM bis-Tris (pH 7.5), 40 mM KCl, 100 mg/L BSA, 1 mM DTT and 5% glycerol were incubated at room temperature for 20 min and then separated by 6% native polyacrylamide gel electrophoresis. A 150 bp fragment of the Anabaena sp. PCC 7120 gene pkn22 was included as non-specific competitor DNA in all assays. EMSA gels were stained with SYBR Safe® (Thermo Fisher Scientific, Bothell, WA, USA) and analyzed using the Bio-Rad Gel Doc 2000 imaging system.

Mouse [6] = settings: cited from earlier work
[7] = test system: H. pylori essential response regulator HsrA; design: method as in PMID 31383920; settings: binds native state of HsrA; cited from earlier work
[8] = test system: H. pylori strain ATCC 700684; test: Time-kill kinetics assay; format: cell-based, Helicobacter pylori; settings: 2 × MIC
Protocol: Time–kill curves for selected DHP drugs were determined using the H. pylori strain ATCC 700684 [17]. […] DMSO instead of drugs was included as control. Colony forming units (CFUs) were determined after 4, 8, and 24 h of drug exposition by culturing on Blood Agar Base No.2 supplemented with 8% defibrinated horse blood for 72 h under microaerobic conditions. Each determination was performed twice in triplicate and the results were presented as log10 CFU/mL versus incubation time. Statistical analysis was performed using the Mann–Whitney U test. A p value smaller than 0.05 was considered significant.

Mouse [9] = test: Mouse oral median lethal dose (LD50); format: in vivo; settings: oral dose 100 mg/kg/day versus mouse oral LD50
[10] = test system: H. pylori ATCC 43504 (MTZ-R); test: Checkerboard assay with metronidazole, strain ATCC 43504; format: cell-based, Helicobacter pylori
Protocol: as §1

H. pylori strain PMSS1 = test: H. pylori gastric colonization in C57BL/6 mice (bacterial counts and qPCR); format: in vivo, Helicobacter pylori (in C57BL/6 mice); settings: PMSS1, oral 100 mg/kg/day marketed formulation + omeprazole 140 mg/kg/day, 7 days, vs infected non-treated
[11] = test system: different strains of H. pylori; design: method as in PMID 31383920; settings: including metronidazole- and clarithromycin-resistant strains; cited from earlier work
[12] = target: T1, H. pylori HsrA response regulator; design: method as in PMID 31383920; settings: previous work; cited from earlier work
[13] = ITC, 25 °C, pH 8, relative error 40%, read-out: Kd

Row | Compound | MBC [1] [µg/mL] | MIC [1] [µg/mL] | MBC (H. pylori ATCC 700392) [µg/mL] | MIC (H. pylori ATCC 700392) [µg/mL] | MBC [2] [µg/mL] | MIC [2] [µg/mL] | n (binding stoichiometry) ([4]; ITC, 25 °C, pH 8) | ΔG ([4]; ITC, 25 °C, pH 8) [kcal/mol] | ΔH ([4]; ITC, 25 °C, pH 8) [kcal/mol] | Inhibition of the DNA binding activity of HsrA [5] | Mouse LD50 (mg/kg, oral) (Mouse [6]; ref PubChem) [mg/kg] | Bactericidal activity against different strains of H. pylori [11] | Inhibition of the biological activity of HsrA [12] | further results
1 | CC[C@H]1OC(=O)[C@H](C)[C@@H](O[C@H]2C[C@@](C)(OC)[C@@H](O)[C@H](C)O2)[C@H](C)[C@@H](O[C@@H]2O[C@H](C)C[C@H](N(C)C)[C@H]2O)[C@](C)(OC)C[C@@H](C)C(=O)[C@H](C)[C@@H](O)[C@]1(C)O [Clarithromycin] | ≤ 0.12 | ≤ 0.12 | ≤ 0.12 | ≤ 0.12 | 32 (≈ 42.8 µM) | 16 (≈ 21.4 µM) | – | – | – | – | – | – | – | –
2 | COC(=O)C1=C(C)NC(C)=C(C(=O)OC(C)(C)CN(C)CCC(c2ccccc2)c2ccccc2)C1c1cccc([N+](=O)[O-])c1 (centres unmarked) [Lercanidipine] | 64 (≈ 105 µM) | 32 (≈ 52.3 µM) | 8 (≈ 13.1 µM) | 8 (≈ 13.1 µM) | 8 (≈ 13.1 µM) | 8 (≈ 13.1 µM) | 0.81 | -6.4 | -4.8 | noticeably inhibited | – | – | – | FICantibiotic ([3]; clarithromycin in combination with DHP, ATCC 700684 (CLR-R)): 0.0625; Reduction of the MIC value of clarithromycin ([3]; in combination with DHP, ATCC 700684): up to 16 times; pKd [4, 13]: 4.70; Mouse LD50 (mg/kg, oral) (Mouse [6]): 622 mg/kg
3 | Cc1ncc([N+](=O)[O-])n1CCO [Metronidazole] | 128 (≈ 748 µM) | 64 (≈ 374 µM) | 2 (≈ 11.7 µM) | 1 (≈ 5.84 µM) | 2 (≈ 11.7 µM) | 1 (≈ 5.84 µM) | – | – | – | – | – | – | – | –
4 | COC(=O)C1=C(C)NC(C)=C(C(=O)OCCN(C)Cc2ccccc2)C1c1cccc([N+](=O)[O-])c1 (centres unmarked) [Nicardipine] | 8 (≈ 16.7 µM) | 8 (≈ 16.7 µM) | 8 (≈ 16.7 µM) | 8 (≈ 16.7 µM) | 8 (≈ 16.7 µM) | 8 (≈ 16.7 µM) | 0.72 | -7.5 | -2.0 | noticeably inhibited | 305 | – | – | Effect on HsrA conformational stability (thermal shift) [7]: increased the protein conformational stability; pKd [4, 13]: 5.52; Inhibition of HsrA activity at 100 μM [5]: partially inhibited; Decline in bacterial counts (time-kill kinetics) compared to other DHPs [8]: significantly faster; Killing effect after 4 h of exposition [8]: completely lethal
5 | COC(=O)C1=C(C)NC(C)=C(C(=O)OC)C1c1ccccc1[N+](=O)[O-] [Nifedipine] | 16 (≈ 46.2 µM) | 16 (≈ 46.2 µM) | 8 (≈ 23.1 µM) | 8 (≈ 23.1 µM) | 8 (≈ 23.1 µM) | 8 (≈ 23.1 µM) | – | – | – | – | – | – | – | Decline in bacterial counts (time-kill kinetics) compared to other DHPs [8]: significantly slower
6 | COCCOC(=O)C1=C(C)NC(C)=C(C(=O)OC(C)C)C1c1cccc([N+](=O)[O-])c1 (centres unmarked) [Nimodipine] | 32 (≈ 76.5 µM) | 16 (≈ 38.2 µM) | 8 (≈ 19.1 µM) | 8 (≈ 19.1 µM) | 4 (≈ 9.56 µM) | 4 (≈ 9.56 µM) | 0.71 | -7.3 | -2.1 | noticeably inhibited | 940 | – | – | Treatment dose, times lower than LD50 (Mouse [9]): 9.4 times; Reduction of the MIC value of metronidazole ([10]; in combination with DHP, ATCC 43504): up to 8 times; FICantibiotic ([10]; metronidazole in combination with DHP, ATCC 43504 (MTZ-R)): 0.125; pKd [4, 13]: 5.39; H. pylori gastric colonization, bacterial counts (CFU/mg of stomach) (H. pylori strain PMSS1): significantly reduced; H. pylori gastric colonization, qPCR (bacteria per 10,000 murine cells) (H. pylori strain PMSS1): significantly reduced
7 | COC(=O)C1=C(C)NC(C)=C(C(=O)OCC(C)C)C1c1ccccc1[N+](=O)[O-] (centres unmarked) [Nisoldipine] | 16 (≈ 41.2 µM) | 16 (≈ 41.2 µM) | 4 (≈ 10.3 µM) | 4 (≈ 10.3 µM) | 4 (≈ 10.3 µM) | 4 (≈ 10.3 µM) | 0.70 | -6.8 | -2.2 | noticeably inhibited | 411 | – | – | pKd [4]: 4.96; Inhibition of HsrA activity at 100 μM [5]: partially inhibited; Decline in bacterial counts (time-kill kinetics) compared to other DHPs [8]: significantly faster; Killing effect after 4 h of exposition [8]: completely lethal
8 | CCOC(=O)C1=C(C)NC(C)=C(C(=O)OC)C1c1cccc([N+](=O)[O-])c1 (centres unmarked) [Nitrendipine] | 16 (≈ 44.4 µM) | 16 (≈ 44.4 µM) | 8 (≈ 22.2 µM) | 8 (≈ 22.2 µM) | 8 (≈ 22.2 µM) | 8 (≈ 22.2 µM) | 0.75 | -6.9 | -2.6 | noticeably inhibited | 2540 | – | – | Treatment dose, times lower than LD50 (Mouse [9]): 25.4 times; pKd [4]: 5.05; H. pylori gastric colonization, bacterial counts (CFU/mg of stomach) (H. pylori strain PMSS1): significantly reduced; H. pylori gastric colonization, qPCR (bacteria per 10,000 murine cells) (H. pylori strain PMSS1): significantly reduced
9 | O=c1cc(-c2ccc(O)cc2)oc2cc(O)cc(O)c12 [apigenin] | – | – | – | – | – | – | – | – | – | – | – | strong bactericidal activities | noticeably inhibited | –
10 | O=c1cc(-c2ccccc2)oc2cc(O)cc(O)c12 [chrysin] | – | – | – | – | – | – | – | – | – | – | – | strong bactericidal activities | noticeably inhibited | –
11 | COc1ccc([C@@H]2CC(=O)c3c(O)cc(O)cc3O2)cc1O [hesperetin] | – | – | – | – | – | – | – | – | – | – | – | strong bactericidal activities | noticeably inhibited | –
12 | O=c1c(O)c(-c2ccc(O)cc2)oc2cc(O)cc(O)c12 [kaempferol] | – | – | – | – | – | – | – | – | – | – | – | strong bactericidal activities | noticeably inhibited | –
